From paper PMC10235067, “Increased renal elimination of endogenous and synthetic pyrimidine nucleosides in concentrative nucleoside transporter 1 deficient mice” (Nature Communications, 2023)
Values joined by “and” are separate entries in the source; they are usually repeats but may differ in a detail not shown here. Identical values can stand only once.

How the values were obtained:
[1] = Gemcitabine plasma pharmacokinetics in Slc28a1+/+ and Slc28a1-/- mice; conditions: for C0: C0, dFdU in plasma; for MRT last: MRTlast
[2] = cited from earlier work
[3] = Gemcitabine urine pharmacokinetics (renal excretion) in Slc28a1+/+ and Slc28a1-/- mice; conditions: Figure 5 G, H, I, individual mice; for concentration at 5 min / concentration at 10 min / concentration at 15 min / concentration at 30 min / concentration at 60 min / concentration at 120 min / concentration at 240 min: mouse, urine, intravenous, 50 mg/kg, Cp (dFdU)
Description: THU was added to the mouse urine samples upon collection and frozen until analysis. […] Five microliters of the diluted samples were transferred to a 96-well autosampler plate then 10 µL of internal standard mixture was added and mixed. […] The plate was then transferred to the 4 °C autosampler for analysis.
The chromatographic separation was performed on a Thermo Accucore aQ 2.6 µm, 100 ×2.1 mm column at 30 °C using a gradient with a 10 µL injection volume. The mobiles phases were 1 mM ammonium acetate in deionized water pH 6.8 and acetonitrile. The total run time was 5.5 min. […] The LC–MS/MS analysis was conducted on a Thermo Vanquish UHPLC with a TSQ Quantiva mass spectrometer equipped with an electrospray ionization source.

[4] = dFdU in plasma, WT mice, iv gemcitabine 50mg/kg, per mouse
[5] = female, Slc28a1-/- (CNT1 knockout; background strain not stated), mouse, plasma, intravenous, 50 mg/kg, Cp (dFdU), KO mice, single iv gemcitabine 50mg/kg
[6] = female, mouse, plasma, intravenous, 50 mg/kg, Cp (dFdU), WT mice, single iv gemcitabine 50mg/kg

Tlast [1, 4]: 15 min and 30 min | Tmax [1, 4]: 0.167 h and 0.083 h and 0.25 h | concentration at 120 min [1, 5]: 0 ng/mL | concentration at 240 min [1, 5]: 0 ng/mL | concentration at 5 min ([1]; female, mouse, plasma, intravenous, 50 mg/kg, Cp (dFdU), KO mice, single iv gemcitabine 50mg/kg, 5 min): 400 ng/mL | concentration at 60 min ([1]; female, mouse, plasma, intravenous, 50 mg/kg, Cp (dFdU), KO mice, single iv gemcitabine 50mg/kg): 0 ng/mL | concentration at 60 min [1, 6]: 0 ng/mL | concentration at 120 min [1, 6]: 0 ng/mL | concentration at 240 min [1, 6]: 0 ng/mL | AUC(0-inf) ([1]; female, mouse, plasma, iv, 50 mg/kg, AUCINF_obs, dFdU in plasma, KO mice, iv gemcitabine 50mg/kg, per mouse): 121 ng·h/mL | AUC(0-inf) ([1]; female, mouse, plasma, iv, 50 mg/kg, AUCINF_pred, dFdU in plasma, KO mice, iv gemcitabine 50mg/kg, per mouse): 121 ng·h/mL | C0 ([1]; female, mouse, plasma, iv, 50 mg/kg, KO mice, iv gemcitabine 50mg/kg, per mouse): 408 ng/mL | C0 ([1]; female, mouse, plasma, iv, 50 mg/kg, WT mice, iv gemcitabine 50mg/kg, per mouse): 445 ng/mL | Cmax ([1]; female, mouse, plasma, iv, 50 mg/kg, Slc28a1+/+ mice, plasma, single i.v. dFdC 50 mg/kg): 453 ± 7.35 ng/mL | Cmax ([1]; female, mouse, plasma, iv, 50 mg/kg, Slc28a1-/- mice, single i.v. dFdC 50 mg/kg): 386 ± 8.42 ng/mL | k el ([1]; female, mouse, plasma, iv, 50 mg/kg, Lambda_z, dFdU in plasma, KO mice, iv gemcitabine 50mg/kg, per mouse): 0.00206 s⁻¹ | MRT inf ([1]; female, mouse, plasma, iv, 50 mg/kg, MRTINF_obs, dFdU in plasma, KO mice, iv gemcitabine 50mg/kg, per mouse): 10.1 min | MRT inf ([1]; female, mouse, plasma, iv, 50 mg/kg, MRTINF_pred, dFdU in plasma, KO mice, iv gemcitabine 50mg/kg, per mouse): 10.1 min | MRT last ([1]; female, mouse, plasma, iv, 50 mg/kg, dFdU in plasma, KO mice, iv gemcitabine 50mg/kg, per mouse): 9.07 min | MRT last ([1]; female, mouse, plasma, iv, 50 mg/kg, dFdU in plasma, WT mice, iv gemcitabine 50mg/kg, per mouse): 8.1 min | Tmax ([1]; female, mouse, plasma, iv, 50 mg/kg, Tmax, Slc28a1+/+ mice, plasma, single i.v. dFdC 50 mg/kg): 4 h | Tmax ([1]; female, mouse, plasma, iv, 50 mg/kg, Tmax, Slc28a1-/- mice, single i.v. dFdC 50 mg/kg): 4 h | concentration at 5 min ([3]; KO mice, 5 Minutes): 344 ng/mL | concentration at 10 min ([3]; KO mice, 10 Minutes): 239 ng/mL | concentration at 15 min ([3]; KO mice, 15 Minutes): 344 ng/mL | concentration at 30 min ([3]; KO mice, 30 Minutes): 334 ng/mL | concentration at 60 min ([3]; KO mice, 60 Minutes): 350 ng/mL | concentration at 120 min ([3]; KO mice, 120 Minutes): 354 ng/mL | concentration at 240 min ([3]; KO mice, 240 Minutes): 371 ng/mL | concentration at 5 min ([3]; WT mice, 5 Minutes): 328 ng/mL | concentration at 10 min ([3]; WT mice, 10 Minutes): 330 ng/mL | concentration at 15 min ([3]; WT mice, 15 Minutes): 331 ng/mL | concentration at 30 min ([3]; WT mice, 30 Minutes): 328 ng/mL | concentration at 60 min ([3]; WT mice, 60 Minutes): 329 ng/mL | concentration at 120 min ([3]; WT mice, 120 Minutes): 332 ng/mL | concentration at 240 min ([3]; WT mice, 240 Minutes): 429 ng/mL
Structure (SMILES): O=c1ccn([C@@H]2O[C@H](CO)[C@@H](O)C2(F)F)c(=O)[nH]1 [dFdU, 2′,2′-difluorodeoxyuridine]
MRTINF_pred [1, 4]: 88.315 min and 25.0092 min and 14.2143 min and 30.2855 min | MRTlast [1, 4]: 7.307 min and 11.7511 min and 10.7753 min and 12.973 min and 10.8216 min | Vss_obs [1, 4]: 108907 mL/kg and 105643 mL/kg and 83335.7 mL/kg and 80142.3 mL/kg | Vss_pred [1, 4]: 108137 mL/kg and 105015 mL/kg and 82903.1 mL/kg and 80134.2 mL/kg | Vz_obs [1, 4]: 108979 mL/kg and 99206.3 mL/kg and 70693.6 mL/kg and 76934.3 mL/kg | Vz_pred [1, 4]: 108051 mL/kg and 103790 mL/kg and 71081.1 mL/kg and 76776.8 mL/kg | Cp (dFdU) ([1]; plasma, KO mice, single iv gemcitabine 50mg/kg, 5 min): 397.109 ng/mL and 353.736 ng/mL and 215.606 ng/mL and 287.027 ng/mL and 238.121 ng/mL | half-life [2]: ~ 26 h | Cp (dFdU) ([3]; KO mice, 5 Minutes): 317.288 ng/mL and 341.288 ng/mL and 338.288 ng/mL and 263.288 ng/mL | Cp (dFdU) ([3]; KO mice, 10 Minutes): 227.479 ng/mL and 269.479 ng/mL and 242.479 ng/mL and 273.479 ng/mL and 275.479 ng/mL | Cp (dFdU) ([3]; KO mice, 15 Minutes): 331.541 ng/mL and 373.541 ng/mL and 346.541 ng/mL and 377.541 ng/mL and 379.541 ng/mL | Cp (dFdU) ([3]; KO mice, 30 Minutes): 322.048 ng/mL and 364.048 ng/mL and 337.048 ng/mL and 368.048 ng/mL and 370.048 ng/mL | Cp (dFdU) ([3]; KO mice, 60 Minutes): 338.37 ng/mL and 380.37 ng/mL and 353.37 ng/mL and 384.37 ng/mL and 386.37 ng/mL | Cp (dFdU) ([3]; KO mice, 120 Minutes): 342.398 ng/mL and 384.398 ng/mL and 357.398 ng/mL and 388.398 ng/mL and 390.398 ng/mL | Cp (dFdU) ([3]; KO mice, 240 Minutes): 359.089 ng/mL and 401.089 ng/mL and 374.089 ng/mL and 405.089 ng/mL and 407.089 ng/mL | Cp (dFdU) ([3]; WT mice, 5 Minutes): 390.036 ng/mL and 363.036 ng/mL and 387.036 ng/mL and 384.036 ng/mL and 309.036 ng/mL | Cp (dFdU) ([3]; WT mice, 10 Minutes): 317.618 ng/mL and 359.618 ng/mL and 332.618 ng/mL and 363.618 ng/mL and 365.618 ng/mL | Cp (dFdU) ([3]; WT mice, 15 Minutes): 319.343 ng/mL and 361.343 ng/mL and 334.343 ng/mL and 365.343 ng/mL and 367.343 ng/mL | Cp (dFdU) ([3]; WT mice, 30 Minutes): 316.265 ng/mL and 358.265 ng/mL and 331.265 ng/mL and 362.265 ng/mL and 364.265 ng/mL | Cp (dFdU) ([3]; WT mice, 60 Minutes): 316.849 ng/mL and 358.849 ng/mL and 331.849 ng/mL and 362.849 ng/mL and 364.849 ng/mL | Cp (dFdU) ([3]; WT mice, 120 Minutes): 320.376 ng/mL and 362.376 ng/mL and 335.376 ng/mL and 366.376 ng/mL and 368.376 ng/mL | Cp (dFdU) ([3]; WT mice, 240 Minutes): 471.043 ng/mL and 459.043 ng/mL and 432.043 ng/mL and 463.043 ng/mL and 465.043 ng/mL
